# Measured values from paper PMC12421899, “Structural and molecular basis for phosphate recognition by SAR11 bacteria” (mBio, 2025).
# Like-named read-outs stand apart in the source and are kept apart here.
# What was measured:
# [1] = biological target: CpPstS; experiment: MST-binding assay of CpPstS; parameters: species or system Candidatus Pelagibacter sp. HTCC7211; details: 25°C
# Description: To analyze the binding affinity of CpPstS to phosphate, the microscale thermophoresis (MST)-binding assay was performed using the Monolith NT.115 instrument (NanoTemper Technologies GmbH). Based on previous studies showing that SAR11_1179 has a high binding affinity to phosphate ([33]), we purified the CpPstS protein under denaturing conditions and refolded it for the MST assay. […]. The high-affinity phosphate-binding affinity of CpPstS is consistent with that previously reported for SAR11_1179 ([33]). To further investigate the molecular mechanism underlying the high-affinity phosphate binding of CpPstS, we subsequently conducted structural biology studies on CpPstS.
# Previous studies have shown that PstSCAB specifically transports inorganic phosphate ([10], [41], [42]). […] We therefore speculate that the larger substrate-binding cavity of CpPstS may allow it to bind to both phosphate and larger organic phosphorus compounds. To test this hypothesis, we conducted an MST-binding assay. […] […].
# Using primers CppstS-F/CppstS-R, the CppstS gene was PCR amplified from the Candidatus Pelagibacter sp. HTCC7211 strain and inserted into the NdeI/XhoI restriction sites of the pET-22b vector containing a C-terminal His-tag (Table S3). The CpPstS and the selenomethionine (SeMet) derivative of CpPstS were expressed in E. coli BL21(DE3) cells under different culture conditions. For CpPstS protein expression for MST-binding assay, cells were cultured at 37°C in LB medium supplemented with 100 µg/mL ampicillin to an OD600 of 0.8–1.0, and induction was initiated with 0.35 mM isopropyl-β-D-thiogalactopyranoside (IPTG) at 15°C for 16 hours. For SeMet-CpPstS protein expression for crystallization, the SeMet-CpPstS protein was overexpressed in E. coli BL21(DE3) using M9 minimal medium supplemented with selenomethionine, lysine, leucine, valine, isoleucine, threonine, and phenylalanine ([50]). The overexpression was induced with 0.35 mM IPTG at 15°C for 16 hours. The purification of CpPstS for MST-binding assay was under denaturing conditions, cultured E. coli BL21(DE3) cells were collected by centrifugation, resuspended in lysis buffer (40 mM Tris-HCl [pH 8.0], 200 mM NaCl, 5% [vol/vol] glycerol, 2 mM EDTA, and 0.1 mM phenylmethanesulfonyl fluoride), and fractured by pressure crusher (JNBIO, China). The CpPstS protein was first purified by affinity chromatography on a Ni^2+-NTA column (Qiagen, Germany), washed with denaturing Ni binding buffer (8 M urea, 20 mM Tris, 250 mM NaCl, and 20 mM imidazole, pH 8.0) and eluted with denaturing Ni elution buffer (8 M urea, 20 mM Tris, 250 mM NaCl, and 250 mM imidazole, pH 8.0). […]
# MST technology was used to quantify the binding affinities of NaH₂PO₄, Mpn, Glycerol-3P, and Glucose-6P to CpPstS. […]
# [2] = biological target: Synechococcus sp. WH8102 PstS1b; details: read-out: Kd of PstS1b for phosphate; cited from earlier work
# [3] = biological target: Synechococcus sp. WH8102 PstS1a; details: read-out: Kd of PstS1a for phosphate; cited from earlier work
# [4] = biological target: Synechococcus sp. WH8102 PstS2; details: read-out: Kd of PstS2 for phosphate; cited from earlier work
# [5] = 40 mM MES pH 7.2, 0.005% Tween-20, read-out: Kd of CpPstS for organic phosphorus compounds
Molecule,"Kd [1, 5] [µM]","Kd ([1]; refolded CpPstS, 40 mM MES pH 7.2, 0.005% Tween-20, NaH2PO4 titrated from 1.53 nM to 50 µM, listed as NaH2PO4, read-out: Kd (dissociation constant) of CpPstS for phosphate) [µM]","Kd ([1]; refolded CpPstS, 40 mM MES pH 7.2, 0.005% Tween-20, NaH2PO4 titrated from 1.53 nM to 50 µM, read-out: Kd (dissociation constant) of CpPstS for phosphate) [µM]",Kd [2] [µM],Kd [3] [µM],Kd [4] [µM]
O=C[C@H](O)[C@@H](O)[C@H](O)[C@H](O)COP(=O)(O)O [glucose-6-phosphate],668 ± 253,,,,,
O=P(O)(O)OCC(O)CO (stereo not shown) [glycerol-3-phosphate],105 ± 44.6,,,,,
phosphate,,0.112 ± 0.0805,0.112,0.44,3.3,4.3
